Test results: US9308182B2 (TEVA PHARMACEUTICAL INDUSTRIES, LTD., priority 2012, dated 2016)
Read-outs that look alike come from different tables or passages of the source.

Target: MAO-A (Rattus norvegicus, UniProt P21396)
Assay: in vivo
Settings: for MAO-A activity, brain / MAO-A activity, intestine / MAO-A activity, liver: two weeks; for MAO-A inhibition in the intestine: three lowest doses 0.02-0.1 mg/kg/day (salt); for inhibition at 0.02 mg/kg/day / inhibition at 0.05 mg/kg/day / inhibition at 0.1 mg/kg/day / inhibition at 0.2 mg/kg/day / inhibition at 0.4 mg/kg/day / inhibition at 0.8 mg/kg/day: rat
Source text: ALZET® osmotic minipumps are described in Perkins L, Peer C, and Murphy-Hackley P. “Chapter 21: The use of mini-osmotic pumps in continuous infusion studies” in Handbook of Pre-Clinical Continuous Intravenous Infusion, (Smith & Healing, eds., Taylor and Francis, 2000), the contents of which are incorporated herein by reference.
The osmotic minipumps were inserted subcutaneously with a single surgical procedure: after clipping the fur from the dorsal area and cleaning the skin with antiseptic skin preparation, about 1 cm long incision was made on the dorsum of the animal, midway between both scappulae. The pump was placed along the axis of the body to one side of the backbone. The incision was positioned about 1-2 cm caudal to the estimated caudal end of the minipump when it is in place.
After two weeks of treatment the animals were sacrificed. From each rat, brain (half) and a part of liver were dissected and frozen. The intestine was excised about ½ cm below the stomach about 1-2 cm long, washed with sucrose 0.32 Molar and frozen at −70° C.
Tissue homogenates were pre incubated (37° C.) in the presence of clorgyline or deprenyl to inhibit the activity of MAO-A or MAO-B respectively. For MAO-B determination, samples were incubated for 20 minutes with C^14 PEA 10 μM and for MAO-A determination samples were incubated 30 minutes with C^14 −5HT 100 μM as substrate Termination of the reaction was done by acidification. The labeled metabolites were extracted into toluene:ethyl acetate, and counted in a β counter.

[1] = po, read-out: Percent of MAO-A inhibition, brain
[2] = po, read-out: Percent of MAO-A inhibition, intestine
[3] = po, read-out: Percent of MAO-A inhibition, liver
[4] = sc, read-out: Percent of MAO-A inhibition, brain
[5] = sc, read-out: Percent of MAO-A inhibition, intestine

Chain of MAO-A (P21396 whole entry): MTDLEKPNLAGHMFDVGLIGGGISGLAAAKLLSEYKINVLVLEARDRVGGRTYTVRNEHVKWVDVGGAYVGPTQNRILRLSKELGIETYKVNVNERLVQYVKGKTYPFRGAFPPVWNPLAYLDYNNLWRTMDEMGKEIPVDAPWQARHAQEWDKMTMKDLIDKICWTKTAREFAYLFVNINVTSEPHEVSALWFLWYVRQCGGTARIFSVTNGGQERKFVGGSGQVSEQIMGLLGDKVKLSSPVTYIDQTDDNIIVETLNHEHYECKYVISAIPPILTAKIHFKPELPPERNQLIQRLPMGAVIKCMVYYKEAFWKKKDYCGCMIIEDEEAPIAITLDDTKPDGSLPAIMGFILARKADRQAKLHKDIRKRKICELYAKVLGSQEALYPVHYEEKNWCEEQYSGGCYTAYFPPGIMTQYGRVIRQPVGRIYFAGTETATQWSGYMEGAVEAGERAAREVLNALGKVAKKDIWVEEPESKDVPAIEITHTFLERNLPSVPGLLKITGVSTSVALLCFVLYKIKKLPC

Question: What does the source list for `C#CCN[C@@H]1CCc2ccccc21` [rasagiline, R(+)-N-propargyl-l-aminoindan]?
Answer: dose dependence of MAO-A inhibition (all tissues (intestine, brain, liver)): Dose Dependent; MAO-A inhibition in the brain, ALZET pumps compared with oral administration (brain): higher; MAO-A activity, brain (brain, oral, 0.02 mg/kg/day (salt)): 3441 dpm; MAO-A activity, brain (brain, oral, 0.05 mg/kg/day (salt)): 3031 dpm; MAO-A activity, brain (brain, oral, 0.1 mg/kg/day (salt)): 2822 dpm; MAO-A activity, brain (brain, oral, 0.2 mg/kg/day (salt)): 2319 dpm; MAO-A activity, brain (brain, oral, 0.4 mg/kg/day (salt)): 1417 dpm; MAO-A activity, brain (brain, oral, 0.8 mg/kg/day (salt)): 803 dpm; MAO-A activity, brain (brain, sc ALZET pumps, 0.02 mg/kg/day (salt)): 3479 dpm; MAO-A activity, brain (brain, sc ALZET pumps, 0.05 mg/kg/day (salt)): 2974 dpm; MAO-A activity, brain (brain, sc ALZET pumps, 0.1 mg/kg/day (salt)): 2595 dpm; MAO-A activity, brain (brain, sc ALZET pumps, 0.2 mg/kg/day (salt)): 1613 dpm; MAO-A activity, brain (brain, sc ALZET pumps, 0.4 mg/kg/day (salt)): 917 dpm; MAO-A activity, brain (brain, sc ALZET pumps, 0.8 mg/kg/day (salt)): 466 dpm; MAO-A inhibition in the intestine, subcutaneous pumps compared with oral administration (intestine, 14 days, differences statistically significant): lower; MAO-A activity, intestine (intestine, oral, 0.02 mg/kg/day (salt)): 2712 dpm; MAO-A activity, intestine (intestine, oral, 0.05 mg/kg/day (salt)): 2607 dpm; MAO-A activity, intestine (intestine, oral, 0.1 mg/kg/day (salt)): 2308 dpm; MAO-A activity, intestine (intestine, oral, 0.2 mg/kg/day (salt)): 1891 dpm; MAO-A activity, intestine (intestine, oral, 0.4 mg/kg/day (salt)): 1194 dpm; MAO-A activity, intestine (intestine, oral, 0.8 mg/kg/day (salt)): 785 dpm; MAO-A activity, intestine (intestine, sc ALZET pumps, 0.02 mg/kg/day (salt)): 3199 dpm; MAO-A activity, intestine (intestine, sc ALZET pumps, 0.05 mg/kg/day (salt)): 2831 dpm; MAO-A activity, intestine (intestine, sc ALZET pumps, 0.1 mg/kg/day (salt)): 3029 dpm; MAO-A activity, intestine (intestine, sc ALZET pumps, 0.2 mg/kg/day (salt)): 2604 dpm; MAO-A activity, intestine (intestine, sc ALZET pumps, 0.4 mg/kg/day (salt)): 1937 dpm; MAO-A activity, intestine (intestine, sc ALZET pumps, 0.8 mg/kg/day (salt)): 1708 dpm; MAOA inhibitory values in the intestine (intestine, sc ALZET pumps, dose from 0.2 to 0.8 mg/kg): < 50%; MAO-A inhibition in the intestine (intestine, given by pumps): did not inhibit; MAO-A inhibition in the intestine (intestine, given orally): 26-37%; hepatic MAO-A inhibition, subcutaneous ALZET pumps compared with oral (liver): higher; MAO-A activity, liver (liver, oral, 0.02 mg/kg/day (salt)): 2127 dpm; MAO-A activity, liver (liver, oral, 0.05 mg/kg/day (salt)): 2199 dpm; MAO-A activity, liver (liver, oral, 0.1 mg/kg/day (salt)): 1963 dpm; MAO-A activity, liver (liver, oral, 0.2 mg/kg/day (salt)): 1582 dpm; MAO-A activity, liver (liver, oral, 0.4 mg/kg/day (salt)): 1058 dpm; MAO-A activity, liver (liver, oral, 0.8 mg/kg/day (salt)): 681 dpm; MAO-A activity, liver (liver, sc ALZET pumps, 0.02 mg/kg/day (salt)): 2192 dpm; MAO-A activity, liver (liver, sc ALZET pumps, 0.05 mg/kg/day (salt)): 2185 dpm; MAO-A activity, liver (liver, sc ALZET pumps, 0.1 mg/kg/day (salt)): 1930 dpm; MAO-A activity, liver (liver, sc ALZET pumps, 0.2 mg/kg/day (salt)): 646 dpm; MAO-A activity, liver (liver, sc ALZET pumps, 0.4 mg/kg/day (salt)): 27 + dpm; MAO-A activity, liver (liver, sc ALZET pumps, 0.8 mg/kg/day (salt)): 4 dpm; inhibition at 0.02 mg/kg/day [1]: 6%; inhibition at 0.05 mg/kg/day [1]: 15%; inhibition at 0.1 mg/kg/day [1]: 23%; inhibition at 0.2 mg/kg/day [1]: 37%; inhibition at 0.4 mg/kg/day [1]: 61%; inhibition at 0.8 mg/kg/day [1]: 78%; inhibition at 0.02 mg/kg/day [2]: 26%; inhibition at 0.1 mg/kg/day [2]: 37%; inhibition at 0.2 mg/kg/day [2]: 48%; inhibition at 0.8 mg/kg/day [2]: 79%; inhibition at 0.02 mg/kg/day [3]: 8%; inhibition at 0.05 mg/kg/day [3]: 5%; inhibition at 0.1 mg/kg/day [3]: 18%; inhibition at 0.2 mg/kg/day [3]: 31%; inhibition at 0.8 mg/kg/day [3]: 70%; inhibition at 0.02 mg/kg/day [4]: 8%; inhibition at 0.05 mg/kg/day [4]: 21%; inhibition at 0.1 mg/kg/day [4]: 31%; inhibition at 0.2 mg/kg/day [4]: 57%; inhibition at 0.4 mg/kg/day [4]: 76%; inhibition at 0.8 mg/kg/day [4]: 88%; inhibition at 0.02 mg/kg/day [5]: -8%; inhibition at 0.05 mg/kg/day [5]: 1%; inhibition at 0.1 mg/kg/day [5]: -3%; inhibition at 0.2 mg/kg/day [5]: 12%
